In US6924304B2, “Cell proliferation inhibitors” (Abbott Laboratories, priority 1999, dated 2005) one finds melting point and inhibition data, which are given here for 18 compounds.

Counter-ions that a name gives are not always drawn.

In series [1] the test system is human lung large cell carcinoma, MDR negative (NCI-H460) cells. Kind of series: 48-hour cellular proliferation assay (sulforhodamine staining), NCI-H460 cells. The series is classed as cell-based. The note with it: Homo sapiens, 10^−4 M compound, read-out: NCI-460 % inhibition at 10^−4 M. As for the experimental part: (§1) Compounds of this invention were tested in a 48-hour cellular proliferation assay which uses human colon adenocarcinoma, MDR positive (HCT-15) cells, and human lung large cell carcinoma, MDR negative (NCI-H460) cells, in the 96-well microtitre format described in Skehan P., et al. New Colorimetric Cytotoxicity Assay for Anticancer Drug Screening. 1990, J. Natl. Cancer Inst. 82:1107-1112, hereby incorporated by reference. Briefly, the wells of a microtitre plate were charged sequentially with cultured cells and compounds of the invention (1.0×10^−4 to 1.0×10^−11 M in 10% DMSO prepared by dissolving compounds of the invention in DMSO and adding 11 μL of the DMSO solution to 100 μL of culture medium for a final DMSO concentration of 10%). Two of the following controls were also present in each microtitre plate: a solvent (DMSO) control without drug that yielded a 0% inhibition level and a trichloroacetic acid-treated well that yielded a 100% inhibition level. The cells were grown in culture (37° C., 5% CO2 atmosphere) for 48 hours then fixed by the addition of trichloroacetic acid. The wells were stained with sulforhodamine, washed with 1% acetic acid, and treated with 0.01 M tris buffer (100 μL) to solubilize the adherent dye. The absorbance of the dye solution was measured with a Molecular Devices SpectraMax340 plate reader. The percent inhibition values were obtained by calculating the proportional response of the experimental values to the absorbance values of the controls.

Series [2] deals with human colon adenocarcinoma, MDR positive (HCT-15) cells. Kind of series: 48-hour cellular proliferation assay (sulforhodamine staining), HCT-15 cells. The format is cell-based. Particulars: Homo sapiens, 10^−4 M compound, HCT-15 cells (MDR positive). The protocol:
as §1

`COc1cc(N(C(=O)CN(C)C)S(=O)(=O)c2ccc3c(ccn3C)c2)cc(OC)c1OC` (as salt: salt) [Example 67, N-((dimethylamino)acetyl)-1-methyl-N-(3,4,5-trimethoxyphenyl)-1H-indole-5-sulfonamide] gave a melting point of 200 to 203 °C.
In the case of `COc1cc(OS(=O)(=O)c2ccc(N(C)C)cc2)cc(OC)c1OC` [Example 44, (3,4,5-trimethoxyphenyl)-4-(dimethylamino)benzenesulfonate], the inhibition at 100 µM was determined as 99.9% in series [1] and 100% in series [2].
As to `COc1cc(S(=O)(=O)Oc2ccc(C)cc2)cc(OC)c1OC` [Example 45, 4-methylphenyl 3,4,5-trimethoxybenzenesulfonate], the inhibition at 100 µM came out at 99.4% in series [1] and 99.9% in series [2].
Consider `COc1cc(OS(=O)(=O)c2ccc3c(c2)CCN3C)cc(OC)c1OC` [Example 46, 3,4,5-trimethoxyphenyl 1-methyl-5-indolinesulfonate], for which the values for the inhibition at 100 µM in series [1] and in series [2] were 99.5% and 99.6%, respectively.
For `COc1ccc(OS(=O)(=O)c2cc(OC)c(OC)c(OC)c2)cc1` [Example 47, 4-methoxyphenyl 3,4,5-trimethoxybenzenesulfonate], the inhibition at 100 µM turned out to be 99.9% in series [1] and 100% in series [2].
Compound `COc1cc(N(C(=O)[C@@H](N)Cc2cnc[nH]2)S(=O)(=O)c2ccc3c(ccn3C)c2)cc(OC)c1OC` [Example 76, N-((2S)-2-amino-3-(1H-imidazol-5-yl)propanoyl)-1-methyl-N-(3,4,5-trimethoxyphenyl)-1H-indole-5-sulfonamide] had a melting point of 175 to 177 °C.
Consider `COc1ccc(CSc2cc(OC)c(OC)c(OC)c2)cc1` [Example 85, 1,2,3-trimethoxy-5-((4-methoxybenzyl)sulfanyl)benzene], for which the melting point was in the range of 65 to 67 °C. Also, the inhibition at 100 µM in series [1] is 99.6%. The inhibition at 100 µM in series [2] was 99.8%.
Taken in the same sequence, the figures for `COc1ccc(C[S+]([O-])c2cc(OC)c(OC)c(OC)c2)cc1` (stereo not shown) [Example 86, 1,2,3-trimethoxy-5-((4-methoxybenzyl)sulfinyl)benzene] were 103 to 105 °C, 96.5% and 99.4%.
`COc1ccc(CS(=O)(=O)c2cc(OC)c(OC)c(OC)c2)cc1` [Example 87, 1,2,3-trimethoxy-5-((4-methoxybenzyl)sulfonyl)benzene] showed a melting point of 95 to 97 °C. The inhibition at 100 µM in series [1] was found to be 99.6%. Testing at 100 µM in series [2] gave an inhibition of 99.9%.
For `COc1ccc(C(C)(C)S(=O)(=O)c2cc(OC)c(OC)c(OC)c2)cc1` [Example 88, 1,2,3-trimethoxy-5-((1-(4-methoxyphenyl)-1-methylethyl)sulfonyl)benzene], the inhibition at 100 µM in series [1] came out at 58.4%; in series [2], 85.5%.
On to `COc1ccc(CSc2cc(OC)c(OC)c(OC)c2)cc1N` [Example 89, 2-methoxy-5-(((3,4,5-trimethoxyphenyl)sulfanyl)methyl)aniline], for which the inhibition at 100 µM in series [1] and in series [2] was 99.9% each time.
Turning to `COc1ccc(C[S+]([O-])c2cc(OC)c(OC)c(OC)c2)cc1N` (stereo not shown) [Example 90, 2-methoxy-5-(((3,4,5-trimethoxyphenyl)sulfinyl)methyl)aniline], the inhibition at 100 µM came to 99.8% in series [1] and 99.5% in series [2].
In the case of `COc1ccc(CS(=O)(=O)c2cc(OC)c(OC)c(OC)c2)cc1N` [Example 91, 2-methoxy-5-(((3,4,5-trimethoxyphenyl)sulfonyl)methyl)aniline], the inhibition at 100 µM in series [1] was determined as 99.8%; in series [2] it was 95%.
With `COc1ccc(C(C)(C)S(=O)(=O)c2cc(OC)c(OC)c(OC)c2)cc1N` [Example 92, 2-methoxy-5-(1-methyl-1-((3,4,5-trimethoxyphenyl)sulfonyl)ethyl)aniline], the inhibition at 100 µM worked out at 9.1% in series [1] and 67.1% in series [2].
As for `COc1ccc(SCc2cc(OC)c(OC)c(OC)c2)cc1` [Example 93, 1,2,3-trimethoxy-5-(((4-methoxyphenyl)sulfanyl)methyl)benzene], the inhibition at 100 µM in series [1] turned out to be 98.6%; in series [2] it was 99.9%.
The matching figures for `COc1ccc(S(=O)(=O)Cc2cc(OC)c(OC)c(OC)c2)cc1` [Example 94, 1,2,3-trimethoxy-5-(((4-methoxyphenyl)sulfonyl)methyl)benzene]: 90.1% and 97.7%.
Consider `COc1ccc(S(=O)(=O)C(C)(C)c2cc(OC)c(OC)c(OC)c2)cc1` [Example 95, 1,2,3-trimethoxy-5-(1-((4-methoxyphenyl)sulfonyl)-1-methylethyl)benzene], for which the inhibition at 100 µM in series [1] was determined as 9.1%; in series [2] it was 84.8%.
Regarding `COc1ccc(S(=O)(=O)Cc2cc(OC)c(OC)c(OC)c2)cc1N` [Example 96, 2-methoxy-5-((3,4,5-trimethoxybenzyl)sulfonyl)aniline], the inhibition at 100 µM in series [1] turned out to be 99.9%; in series [2] it was 99.8%.
